Data from patent publication US10053447B2, “Fluorescent compounds” (Pierce Biotechnology, Inc, priority 2010, dated 2018).

Columns and labels:
[1] = Absorption profile and fluorescence intensity of the free dyes; assay type: physicochemical; conditions: dyes compared with each other (FIG. 1, 25, 52)
[2] = Storage stability at 50° C. under argon; assay type: physicochemical
Description: (§1) The inventive compounds were evaluated for stability. All compounds were packed under argon in plastic vials. The vials sere sealed with a drying pad in an aluminium coated pouch, and then stored at 50° C. for seven days. The results of the stability study for selected compounds are shown below:
Purity was determined based on ester activity.
as §1, with “stability compared to commercial dyes.” for “stability.”, “argon as 1 mg portions” for “argon”, “14” for “seven”
The inventive compound 755 Compound 1 (isomer 1)-NHS was evaluated for stability. The compound was packed under argon in plastic vials. The vials sere sealed with a drying pad in an aluminium coated pouch, and then stored at 50° C. for 14 days. Purity was determined by HPLC before and after storage.

[3] = Quantum yield (QY) measurement, Hamamatsu C9920 PL Absolute Quantum Yield Measurement System; assay type: physicochemical; conditions: in PBS
Description: The quantum yield (QY) was determined at an excitation wavelength of 500 nm and 530 nm for inventive and commercial compounds, as shown below
QY measurements were performed in PBS using a Hamamatsu C9920 PL Absolute Quantum Yield Measurement System. The maximum absorbance at a 1 cm pathlength was set to 0.08. The lower values for the excitation at 530 nm was due to the rising emission which was not included in the counting because it was too close to the excitation light.
The quantum yield (QY) was determined at an excitation wavelength of 600 nm for inventive and commercial compounds, as shown below
QY measurements were performed in PBS using a Hamamatsu C9920 PL Absolute Quantum Yield Measurement System. The maximum absorbance at a 1 cm pathlength was set to 0.08.
The quantum yield (QY) was determined at an excitation wavelength of 710 nm for inventive and commercial compounds, as shown below.
QY measurements were performed in PBS using a Hamamatsu C9920 PL Absolute Quantum Yield Measurement System. The maximum absorbance at a 1 cm path length was set to 0.08.

[4] = Spectral properties of the dyes compared with commercially available dyes; assay type: physicochemical; conditions: reactive ester form of the dye
U2OS cells; A550 cells = assay: Immunofluorescence cell based assays, summary statements; parameters: species or system human; conditions: GAM and GAR conjugates
Description: The inventive compounds and commercial dye were evaluated for immunofluorescence in cell based assays using the following protocol. Plates containing U2OS cells (human osteosarcoma cell line) were fixed in 4% paraformaldehyde in PBS/0.1% Triton X-100 for 15 min at room temperature. The cells were then permeabilized with 2% BSA in PBS/0.1% Triton X-100 for 30 min at room temperature. Diluted primary antibodies in PBS/0.1% Triton X-100 were added to the plates and incubated overnight at 4° C. The plates were washed 3×100 μl with PBS. Based on the calculated protein concentrations, the conjugates were diluted to 4 μg/ml (1:250 from 1 mg/ml stock) in PBS/0.1% Triton X-100 and added to the plates (50 μl/well) and incubated 1 h in the dark at room temperature. The plates were washed 3×100 μl with PBS. One hundred μl of 2 μg/ml Hoechst dye in PBS was added per well. The plates were then scanned on an ArrayScan® Plate Reader for imaging and quantitation.
The inventive compounds and commercial dyes were evaluated for immunofluorescence in cell based assays using the following protocol. Plates containing A550 cells (adenocarcinoma human alveolar basal epithelial cells, P5, Sep. 23, 2010) and stored at −80° C. were placed at 50° C. for 30 min. The storage buffer (PBS) was removed and then the cells were permeabilized for 15 min (100 μl/well) with 0.1% Triton-X100 in 1×PBS buffer. The plates were blocked for 30 min in 2% BSA in 1×PBS-0.1% Triton-X100 and then incubated with primary antibodies diluted in 2% BSA in 1×PBS, 0.1% Trion-X100, overnight at 4° C. […] The remaining wells were incubated in blocking buffer only (no primary antibody). After overnight incubation, the antibody solution was removed from the wells, and the plates were washed with PBS-Tween (2×100 μl/well). The labeled secondary antibody conjugates, diluted to 4 μg/ml in PBS were added to corresponding wells and incubated for 1 h at room temperature (about 20° C. to about 22° C.). The plates were washed 3×100 μl/well with PBS and Hoechst stain diluted 1 μg/ml in PBS were added to each well (100 μl/well) of each plate. The plates were then scanned on the Thermo Scientific ArrayScan® HCS Reader for imaging and quantitation.

[5] = system: mouse IgG, rabbit IgG, biotinylated bovine serum albumin (BBSA); assay: Functional assay, summary over GAM, GAR and SA conjugates; assay type: binding; conditions: compared with DyLight 549 or DyLight 649 conjugates
Description: Performance of the dye-GAM conjugates, dye-GAR conjugates, and dye-SA conjugates was evaluated in a functional assay. Wells of a 96 white opaque plate were coated with target proteins mouse IgG immunoglobulin, rabbit IgG immunoglobulin, or biotinylated bovine serum albumin (BBSA). One hundred μl mouse or rabbit IgG or BBSA at a concentration of 10 μg/ml was applied to the corresponding wells in columns 1 and 2. The target proteins were serially diluted 1:1 from the wells in columns 2 to 11 using 100 μl PBS. One hundred 100 μl of the samples from the wells in column 11 were discarded. One hundred μl PBS was added to the wells in column 12. The plates were incubated overnight at 4° C. and then blocked 2×200 μl with Thermo Scientific SuperBlock® Blocking Buffer. The coated plates were washed 2×200 μl with PBS-Tween and 1×200 μl with PBS. Conjugates diluted in PBS to 4 μg/ml were added to the corresponding plates (100 μl/well) and then incubated for 1 h in the dark. The plates were washed with 2×200 μl with PBS-Tween and 1×200 μl with PBS and filled with PBS buffer (100 μl/well) prior to scanning on Tecan Safire using 562 nmexcitation/576 nmemission to detect fluorescence intensity.
Performance of the dye-GAM conjugates and dye-GAR conjugates was evaluated in a functional assay. Wells of a 96 well white opaque plate were coated with mouse IgG, or rabbit IgG. One hundred μl mouse or rabbit IgG at a concentration of 10 μg/ml was applied to the corresponding wells in columns 1 and 2. The IgG proteins were serially diluted 1:1 from the wells in columns 2 to 11 using 100 μl PBS. One hundred 100 μl of the samples from the wells in column 11 were discarded. One hundred μl PBS was added to the wells in column 12. […] The plates were washed with 2×200 μl with PBS-Tween and 1×200 μl with PBS and filled with PBS buffer (100 μl/well) prior to scanning on Tecan Safire using the Alexa 647 setting (650 nmexcitation/665 nmemission) and the DyLight 649 setting (654 nmexcitation/673 nmemission to detect fluorescence intensity

[6] = unit size 15 μg, 50° C. for seven days, purity based on ester activity, listed as 550 Compound 1(isomer 2)-NHS
[7] = unit size 50 μg, 50° C. for seven days, purity based on ester activity, listed as 550 Compound 1(isomer 2)-NHS
[8] = unit size 15 μg, 50° C. for 14 days, purity by HPLC
[9] = unit size 50 μg, 50° C. for 14 days, purity by HPLC
[10] = unit size 60 μg, 50° C. for 14 days, purity by HPLC
[11] = unit size 1 mg, 50° C. for 14 days, purity by HPLC

COCCN1/C(=C/C=C/C2=[N+](CCCCCC(=O)ON3C(=O)CCC3=O)c3ccc(S(=O)(=O)[O-])cc3C2(C)CCCS(=O)(=O)O)C(C)(CCCS(=O)(=O)O)c2cc(S(=O)(=O)O)ccc21 (single isomer, unassigned) [550 Compound 1 (isomer 2)-NHS]
Absorption profile [1]: very similar profiles
Purity at day 1 [2, 6]: 96%
Purity at day 7 [2, 6]: 94%
Purity at day 1 [2, 7]: 96%
Purity at day 7 [2, 7]: 95%
QY excitation at 500 nm [3]: 0.096
QY excitation at 530 nm [3]: 0.090

COCCN1/C(=C/C=C/C=C/C=C/C2=[N+](CCCCCC(=O)ON3C(=O)CCC3=O)c3ccc(S(=O)(=O)[O-])cc3C2(C)CCCS(=O)(=O)O)C(C)(CCCS(=O)(=O)O)c2cc(S(=O)(=O)O)ccc21 (single isomer, unassigned) [755 Compound 1 (isomer 1)-NHS]
Absorption profile [1]: very similar profiles
Emission (Em) [4]: 776 nm
Excitation (Ex) [4]: 754 nm
ε [4]: 220,000 M−1cm−1
Purity at day 1 [2, 8]: 99%
Purity at day 14 [2, 8]: 96%
Purity at day 1 [2, 9]: 99%
Purity at day 14 [2, 9]: 97%
Purity at day 1 [2, 10]: 99%
Purity at day 14 [2, 10]: 97%
Purity at day 1 [2, 11]: 99%
Purity at day 14 [2, 11]: 98%
QY with excitation at 710 nm [3]: 0.119

COCCN1/C(=C/C=C/C=C/C=C/C2=[N+](CCCCCC(=O)ON3C(=O)CCC3=O)c3ccc(S(=O)(=O)[O-])cc3C2(C)CCCS(=O)(=O)O)C(C)(CCCS(=O)(=O)O)c2cc(S(=O)(=O)O)ccc21 (single isomer, unassigned) [755 Compound 1 (isomer 2)-NHS]
Absorption profile [1]: very similar profiles
Emission (Em) [4]: 776 nm
Excitation (Ex) [4]: 754 nm
ε [4]: 220,000 M−1cm−1
QY with excitation at 710 nm [3]: 0.110

COCC[N+]1=C(/C=C/C=C/C=C2/N(CCCCCC(=O)O)c3ccc(S(=O)(=O)O)cc3C2(C)CCCS(=O)(=O)O)C(C)(CCCS(=O)(=O)O)c2cc(S(=O)(=O)O)ccc21.[Na+].[Na+].[Na+] (stereo not shown) [650 Compound 1, 2-{(1E,3E)-5-[1-(5-Carboxypentyl)-3-methyl-5-sulfo-3-(3-sulfopropyl)-1,3-dihydro-indol-(2E)-ylidene]-penta-1,3-dienyl}-1-(2-methoxy-ethyl)-3-methyl-5-sulfo-3-(3-sulfopropyl)-3H-indolium tri sodium salt]
Immunofluorescence performance of conjugates compared with commercial DyLight dye (U2OS cells; A550 cells; tri sodium salt): at least similar performance to DyLight 649 conjugates (GAM, GAR), and in some cases superior performance
Performance of conjugates (GAM, GAR, SA) in the functional assay in terms of signal-to-noise [5]: superior to DyLight 649 conjugates

COCCOCC[N+]1=C(/C=C/C=C/C=C2/N(CCCCCC(=O)O)c3ccc(S(=O)(=O)O)cc3C2(C)CCCS(=O)(=O)O)C(C)(CCCS(=O)(=O)O)c2cc(S(=O)(=O)O)ccc21.[Na+].[Na+].[Na+] (stereo not shown) [650 Compound 2, 2-{(1E,3E)-5-[1-(5-carboxypentyl)-3-methyl-5-sulfo-3-(3-sulfopropyl)-1,3-dihydroindol-(2E)-ylidene]-penta-1,3-dienyl}-1-[2-(2-methoxy-ethoxy)-ethyl]-3-methyl-5-sulfo-3-(3-sulfopropyl)-3H-indolium tri sodium salt]
Immunofluorescence performance of conjugates compared with commercial DyLight dye (U2OS cells; A550 cells): at least similar performance to DyLight 649 conjugates (GAM, GAR), and in some cases superior performance
Performance of conjugates (GAM, GAR, SA) in the functional assay in terms of signal-to-noise [5]: superior to DyLight 649 conjugates

COCCOCCOCC[N+]1=C(/C=C/C=C/C=C2/N(CCCCCC(=O)O)c3ccc(S(=O)(=O)O)cc3C2(C)CCCS(=O)(=O)O)C(C)(CCCS(=O)(=O)O)c2cc(S(=O)(=O)O)ccc21.[Na+].[Na+].[Na+] (stereo not shown) [650 Compound 3, 2-{(1E,3E)-5-[1-(5-carboxypentyl)-3-methyl-5-sulfo-3-(3-sulfopropyl)-1,3-dihydro-indol-(2E)-ylidene]-penta-1,3-dienyl}-1-{2-[2-(2-methoxy-ethoxy)-ethoxy]-ethyl}-3-methyl-5-sulfo-3-(3-sulfopropyl)-3H-indolium tri sodium salt]
Immunofluorescence performance of conjugates compared with commercial DyLight dye (U2OS cells; A550 cells): at least similar performance to DyLight 649 conjugates (GAM, GAR), and in some cases superior performance
Performance of conjugates (GAM, GAR, SA) in the functional assay in terms of signal-to-noise [5]: superior to DyLight 649 conjugates
